Assay results from US20230073777A1, “CYCLIC-AMP RESPONSE ELEMENT BINDING PROTEIN (CBP) AND/OR ADENOVIRAL E1A BINDING PROTEIN OF 300 KDA (P300) DEGRADATION COMPOUNDS AND METHODS OF USE” (CULLGEN (SHANGHAI), INC., priority 2019, published 2023).

What was measured:
[1] = tested on: LNCaP cells; assay: LNCaP cell viability assay (CellTiter-Glo); assay type: cell-based; settings: Homo sapiens, 72 h; LNCaP prostate cancer cell viability inhibition, 3 days, CellTiter-Glo (Table 3)
How it was run: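 Three-day treatment of LNCaP cells (5000 per well) across a 12-point, 3-fold dilution series starting at 10 μM. ATP luminescence (CellTiter-Glo) relative to untreated controls gave dose-response curves fitted nonlinearly for IC50.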

[2] = molecular target: P300 (Homo sapiens, UniProt Q09472); assay: Immunoblotting of P300 protein levels in LNCaP or 22RV1 cells; assay type: cell-based; design: LNCaP or 22RV1 cells that express CBP/P300 proteins were treated with GNE-781 or the bivalent compounds; endogenous in cells; host or cells: LNCaP (clone FGC) or 22RV1 cells; settings: percentage of inhibition of p300 at 10 nM (Table 3); read-out: Degradation (10 nM)
Sequence of P300 (Q09472 whole entry): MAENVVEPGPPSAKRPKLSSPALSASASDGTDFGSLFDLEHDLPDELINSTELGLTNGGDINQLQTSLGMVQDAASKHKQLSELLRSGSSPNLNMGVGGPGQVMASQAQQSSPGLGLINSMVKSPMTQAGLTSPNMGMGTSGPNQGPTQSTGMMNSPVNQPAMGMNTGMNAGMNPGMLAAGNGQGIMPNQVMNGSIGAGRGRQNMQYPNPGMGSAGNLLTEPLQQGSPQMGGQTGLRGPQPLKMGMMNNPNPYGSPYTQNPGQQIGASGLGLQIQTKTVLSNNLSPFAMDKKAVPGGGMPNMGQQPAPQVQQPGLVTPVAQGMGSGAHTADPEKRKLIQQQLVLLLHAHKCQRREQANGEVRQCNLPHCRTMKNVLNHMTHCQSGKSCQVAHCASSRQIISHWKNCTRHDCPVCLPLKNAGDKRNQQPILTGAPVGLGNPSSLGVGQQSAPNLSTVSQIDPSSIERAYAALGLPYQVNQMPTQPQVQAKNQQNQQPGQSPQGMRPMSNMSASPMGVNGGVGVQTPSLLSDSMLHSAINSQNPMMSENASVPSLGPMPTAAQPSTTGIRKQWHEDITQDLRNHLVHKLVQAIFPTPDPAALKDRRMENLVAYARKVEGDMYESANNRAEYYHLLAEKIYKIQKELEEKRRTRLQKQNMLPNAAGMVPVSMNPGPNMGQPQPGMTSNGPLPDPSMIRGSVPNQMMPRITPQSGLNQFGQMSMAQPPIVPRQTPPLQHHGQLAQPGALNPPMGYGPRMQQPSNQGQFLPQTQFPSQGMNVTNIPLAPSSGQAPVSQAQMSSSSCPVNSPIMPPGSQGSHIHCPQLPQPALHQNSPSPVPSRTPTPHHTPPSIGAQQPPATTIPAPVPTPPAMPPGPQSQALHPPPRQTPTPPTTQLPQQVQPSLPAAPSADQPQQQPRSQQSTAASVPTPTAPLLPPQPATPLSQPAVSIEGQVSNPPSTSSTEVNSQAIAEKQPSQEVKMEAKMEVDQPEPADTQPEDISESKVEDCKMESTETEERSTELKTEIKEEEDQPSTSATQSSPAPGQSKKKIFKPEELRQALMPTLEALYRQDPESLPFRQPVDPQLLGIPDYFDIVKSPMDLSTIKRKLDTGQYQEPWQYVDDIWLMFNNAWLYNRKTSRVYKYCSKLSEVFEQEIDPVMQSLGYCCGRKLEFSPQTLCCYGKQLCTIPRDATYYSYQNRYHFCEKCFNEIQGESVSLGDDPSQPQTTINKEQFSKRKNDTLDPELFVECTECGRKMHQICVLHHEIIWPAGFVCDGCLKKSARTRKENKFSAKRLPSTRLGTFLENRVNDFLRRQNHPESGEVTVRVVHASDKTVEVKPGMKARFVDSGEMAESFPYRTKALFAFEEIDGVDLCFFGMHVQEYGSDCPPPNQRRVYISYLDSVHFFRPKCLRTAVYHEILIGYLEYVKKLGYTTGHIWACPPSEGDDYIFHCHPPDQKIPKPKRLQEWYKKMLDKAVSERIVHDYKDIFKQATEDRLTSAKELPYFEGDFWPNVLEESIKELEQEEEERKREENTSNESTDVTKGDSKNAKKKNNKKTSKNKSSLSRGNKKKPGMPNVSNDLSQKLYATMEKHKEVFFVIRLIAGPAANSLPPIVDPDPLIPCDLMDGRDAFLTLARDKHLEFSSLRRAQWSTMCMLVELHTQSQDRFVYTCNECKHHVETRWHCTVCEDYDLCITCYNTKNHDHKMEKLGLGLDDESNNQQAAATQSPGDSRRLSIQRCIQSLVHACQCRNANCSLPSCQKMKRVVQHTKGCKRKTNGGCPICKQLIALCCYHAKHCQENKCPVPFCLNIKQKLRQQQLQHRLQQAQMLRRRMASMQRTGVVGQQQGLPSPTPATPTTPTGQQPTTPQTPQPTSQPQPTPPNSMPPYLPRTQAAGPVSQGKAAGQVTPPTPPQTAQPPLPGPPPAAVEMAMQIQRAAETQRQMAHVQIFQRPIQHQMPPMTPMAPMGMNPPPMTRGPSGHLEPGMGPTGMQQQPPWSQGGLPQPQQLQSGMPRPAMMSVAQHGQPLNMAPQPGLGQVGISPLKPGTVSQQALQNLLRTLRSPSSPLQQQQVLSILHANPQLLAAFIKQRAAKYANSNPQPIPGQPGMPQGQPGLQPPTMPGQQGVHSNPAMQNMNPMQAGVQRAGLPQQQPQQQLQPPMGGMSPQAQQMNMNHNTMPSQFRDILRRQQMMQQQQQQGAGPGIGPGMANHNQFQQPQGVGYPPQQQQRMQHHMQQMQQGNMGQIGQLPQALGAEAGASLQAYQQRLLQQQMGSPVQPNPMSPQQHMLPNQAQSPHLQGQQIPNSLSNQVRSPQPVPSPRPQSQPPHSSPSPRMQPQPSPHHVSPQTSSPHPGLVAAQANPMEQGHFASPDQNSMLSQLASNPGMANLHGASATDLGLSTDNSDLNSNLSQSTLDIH
How it was run: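 P300/CBP levels quantified by chemiluminescent immunoblot band densitometry, normalized against tubulin or vinculin loading controls. Lysates came from LNCaP or 22RV1 cells exposed to compounds or DMSO vehicle for indicated times.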

| IC50 [1] [nM] | inhibition at 0.01 µM [2] [%] | SMILES |
| --- | --- | --- |
| 59.1 | < 20 | CNC(=O)N1CCc2c(c(N3CCCc4cc(-c5cnn(C)c5)c(C(F)F)cc43)nn2C2CCN(C(=O)CCCCCCC(=O)N[C@H](C(=O)N3C[C@H](O)C[C@H]3C(=O)NCc3ccc(-c4scnc4C)cc3)C(C)(C)C)CC2)C1 [P-060, 3-(7-(Difluoromethyl)-6-(1-methyl-1H-pyrazol-4-yl)-3,4-dihydroquinolin-1(2H)-yl)-1-(1-(8-(((S)-1-((2S,4R)-4-hydroxy-2-((4-(4-methylthiazol-5-yl)benzyl)carbamoyl)pyrrolidin-1-yl)-3,3-dimethyl-1-oxobutan-2-yl)amino)-8-oxooctanoyl)piperidin-4-yl)-N-methyl-1,4,6,7-tetrahydro-5H-pyrazolo[4,3-c]pyridine-5-carboxamide] |
| 81.3 | < 20 | CNC(=O)N1CCc2c(c(N3CCCc4cc(-c5cnn(C)c5)c(C(F)F)cc43)nn2C2CCN(C(=O)CCCCCCCC(=O)N[C@H](C(=O)N3C[C@H](O)C[C@H]3C(=O)NCc3ccc(-c4scnc4C)cc3)C(C)(C)C)CC2)C1 [P-061, 3-(7-(Difluoromethyl)-6-(1-methyl-1H-pyrazol-4-yl)-3,4-dihydroquinolin-1(2H)-yl)-1-(1-(9-(((S)-1-((2S,4R)-4-hydroxy-2-((4-(4-methylthiazol-5-yl)benzyl)carbamoyl)pyrrolidin-1-yl)-3,3-dimethyl-1-oxobutan-2-yl)amino)-9-oxononanoyl)piperidin-4-yl)-N-methyl-1,4,6,7-tetrahydro-5H-pyrazolo[4,3-c]pyridine-5-carboxamide] |
| 35 | 20 to 50 | CNC(=O)N1CCc2c(c(N3CCCc4cc(-c5cnn(C)c5)c(C(F)F)cc43)nn2C2CCN(C(=O)CCCCCCCCC(=O)N[C@H](C(=O)N3C[C@H](O)C[C@H]3C(=O)NCc3ccc(-c4scnc4C)cc3)C(C)(C)C)CC2)C1 [P-062, 3-(7-(Difluoromethyl)-6-(1-methyl-1H-pyrazol-4-yl)-3,4-dihydroquinolin-1(2H)-yl)-1-(1-(10-(((S)-1-((2S,4R)-4-hydroxy-2-((4-(4-methylthiazol-5-yl)benzyl)carbamoyl)pyrrolidin-1-yl)-3,3-dimethyl-1-oxobutan-2-yl)amino)-10-oxodecanoyl)piperidin-4-yl)-N-methyl-1,4,6,7-tetrahydro-5H-pyrazolo[4,3-c]pyridine-5-carboxamide] |
| 28.9 | 20 to 50 | CNC(=O)N1CCc2c(c(N3CCCc4cc(-c5cnn(C)c5)c(C(F)F)cc43)nn2C2CCN(C(=O)CCCCCCCCCC(=O)N[C@H](C(=O)N3C[C@H](O)C[C@H]3C(=O)NCc3ccc(-c4scnc4C)cc3)C(C)(C)C)CC2)C1 [P-063, 3-(7-(Difluoromethyl)-6-(1-methyl-1H-pyrazol-4-yl)-3,4-dihydroquinolin-1(2H)-yl)-1-(1-(11-(((S)-1-((2S,4R)-4-hydroxy-2-((4-(4-methylthiazol-5-yl)benzyl)carbamoyl)pyrrolidin-1-yl)-3,3-dimethyl-1-oxobutan-2-yl)amino)-11-oxoundecanoyl)piperidin-4-yl)-N-methyl-1,4,6,7-tetrahydro-5H-pyrazolo[4,3-c]pyridine-5-carboxamide] |
| 57.5 | < 20 | CNC(=O)N1CCc2c(c(N3CCCc4cc(-c5cnn(C)c5)c(C(F)F)cc43)nn2C2CCN(C(=O)COCC(=O)N[C@H](C(=O)N3C[C@H](O)C[C@H]3C(=O)NCc3ccc(-c4scnc4C)cc3)C(C)(C)C)CC2)C1 [P-064, 3-(7-(Difluoromethyl)-6-(1-methyl-1H-pyrazol-4-yl)-3,4-dihydroquinolin-1(2H)-yl)-1-(1-(2-(2-(((S)-1-((2S,4R)-4-hydroxy-2-((4-(4-methylthiazol-5-yl)benzyl)carbamoyl)pyrrolidin-1-yl)-3,3-dimethyl-1-oxobutan-2-yl)amino)-2-oxoethoxy)acetyl)piperidin-4-yl)-N-methyl-1,4,6,7-tetrahydro-5H-pyrazolo[4,3-c]pyridine-5-carboxamide] |
| 135 | < 20 | CNC(=O)N1CCc2c(c(N3CCCc4cc(-c5cnn(C)c5)c(C(F)F)cc43)nn2C2CCN(C(=O)COCCOCC(=O)N[C@H](C(=O)N3C[C@H](O)C[C@H]3C(=O)NCc3ccc(-c4scnc4C)cc3)C(C)(C)C)CC2)C1 [P-066, 3-(7-(Difluoromethyl)-6-(1-methyl-1H-pyrazol-4-yl)-3,4-dihydroquinolin-1(2H)-yl)-1-(1-(2-(2-(2-(((S)-1-((2S,4R)-4-hydroxy-2-((4-(4-methylthiazol-5-yl)benzyl)carbamoyl)pyrrolidin-1-yl)-3,3-dimethyl-1-oxobutan-2-yl)amino)-2-oxoethoxy)ethoxy)acetyl)piperidin-4-yl)-N-methyl-1,4,6,7-tetrahydro-5H-pyrazolo[4,3-c]pyridine-5-carboxamide] |
| 32 | < 20 | CNC(=O)N1CCc2c(c(N3CCCc4cc(-c5cnn(C)c5)c(C(F)F)cc43)nn2C2CCN(C(=O)CCOCCOCCC(=O)N[C@H](C(=O)N3C[C@H](O)C[C@H]3C(=O)NCc3ccc(-c4scnc4C)cc3)C(C)(C)C)CC2)C1 [P-067, 3-(7-(Difluoromethyl)-6-(1-methyl-1H-pyrazol-4-yl)-3,4-dihydroquinolin-1(2H)-yl)-1-(1-(3-(2-(3-(((S)-1-((2S,4R)-4-hydroxy-2-((4-(4-methylthiazol-5-yl)benzyl)carbamoyl)pyrrolidin-1-yl)-3,3-dimethyl-1-oxobutan-2-yl)amino)-3-oxopropoxy)ethoxy)propanoyl)piperidin-4-yl)-N-methyl-1,4,6,7-tetrahydro-5H-pyrazolo[4,3-c]pyridine-5-carboxamide] |
| 30.8 | < 20 | CNC(=O)N1CCc2c(c(N3CCCc4cc(-c5cnn(C)c5)c(C(F)F)cc43)nn2C2CCN(C(=O)COCCOCCOCC(=O)N[C@H](C(=O)N3C[C@H](O)C[C@H]3C(=O)NCc3ccc(-c4scnc4C)cc3)C(C)(C)C)CC2)C1 [P-068, 3-(7-(Difluoromethyl)-6-(1-methyl-1H-pyrazol-4-yl)-3,4-dihydroquinolin-1(2H)-yl)-1-(1-((S)-13-((2S,4R)-4-hydroxy-2-((4-(4-methylthiazol-5-yl)benzyl)carbamoyl)pyrrolidine-1-carbonyl)-14,14-dimethyl-11-oxo-3,6,9-trioxa-12-azapentadecanoyl)piperidin-4-yl)-N-methyl-1,4,6,7-tetrahydro-5H-pyrazolo[4,3-c]pyridine-5-carboxamide] |
| 36.1 | < 20 | CNC(=O)N1CCc2c(c(N3CCCc4cc(-c5cnn(C)c5)c(C(F)F)cc43)nn2C2CCN(C(=O)CCOCCOCCOCCC(=O)N[C@H](C(=O)N3C[C@H](O)C[C@H]3C(=O)NCc3ccc(-c4scnc4C)cc3)C(C)(C)C)CC2)C1 [P-069, 3-(7-(Difluoromethyl)-6-(1-methyl-1H-pyrazol-4-yl)-3,4-dihydroquinolin-1(2H)-yl)-1-(1-((S)-15-((2S,4R)-4-hydroxy-2-((4-(4-methylthiazol-5-yl)benzyl)carbamoyl)pyrrolidine-1-carbonyl)-16,16-dimethyl-13-oxo-4,7,10-trioxa-14-azaheptadecanoyl)piperidin-4-yl)-N-methyl-1,4,6,7-tetrahydro-5H-pyrazolo[4,3-c]pyridine-5-carboxamide] |
| 31.9 | < 20 | CNC(=O)N1CCc2c(c(N3CCCc4cc(-c5cnn(C)c5)c(C(F)F)cc43)nn2C2CCN(C(=O)CCOCCOCCOCCOCCC(=O)N[C@H](C(=O)N3C[C@H](O)C[C@H]3C(=O)NCc3ccc(-c4scnc4C)cc3)C(C)(C)C)CC2)C1 [P-070, 3-(7-(Difluoromethyl)-6-(1-methyl-1H-pyrazol-4-yl)-3,4-dihydroquinolin-1(2H)-yl)-1-(1-((S)-18-((2S,4R)-4-hydroxy-2-((4-(4-methylthiazol-5-yl)benzyl)carbamoyl)pyrrolidine-1-carbonyl)-19,19-dimethyl-16-oxo-4,7,10,13-tetraoxa-17-azaicosanoyl)piperidin-4-yl)-N-methyl-1,4,6,7-tetrahydro-5H-pyrazolo[4,3-c]pyridine-5-carboxamide] |
| 107 | 20 to 50 | CNC(=O)N1CCc2c(c(N3CCCc4cc(-c5cnn(C)c5)c(C(F)F)cc43)nn2C2CCN(C(=O)COCCOCCOCCOCCOCC(=O)N[C@H](C(=O)N3C[C@H](O)C[C@H]3C(=O)NCc3ccc(-c4scnc4C)cc3)C(C)(C)C)CC2)C1 [P-071, 3-(7-(Difluoromethyl)-6-(1-methyl-1H-pyrazol-4-yl)-3,4-dihydroquinolin-1(2H)-yl)-1-(1-((S)-19-((2S,4R)-4-hydroxy-2-((4-(4-methylthiazol-5-yl)benzyl)carbamoyl)pyrrolidine-1-carbonyl)-20,20-dimethyl-17-oxo-3,6,9,12,15-pentaoxa-18-azahenicosanoyl)piperidin-4-yl)-N-methyl-1,4,6,7-tetrahydro-5H-pyrazolo[4,3-c]pyridine-5-carboxamide] |
| 60.7 | < 20 | CNC(=O)N1CCc2c(c(N3CCCc4cc(-c5cnn(C)c5)c(C(F)F)cc43)nn2C2CCN(C(=O)CCOCCOCCOCCOCCOCCC(=O)N[C@H](C(=O)N3C[C@H](O)C[C@H]3C(=O)NCc3ccc(-c4scnc4C)cc3)C(C)(C)C)CC2)C1 [P-072, 3-(7-(Difluoromethyl)-6-(1-methyl-1H-pyrazol-4-yl)-3,4-dihydroquinolin-1(2H)-yl)-1-(1-((S)-21-((2S,4R)-4-hydroxy-2-((4-(4-methylthiazol-5-yl)benzyl)carbamoyl)pyrrolidine-1-carbonyl)-22,22-dimethyl-19-oxo-4,7,10,13,16-pentaoxa-20-azatricosanoyl)piperidin-4-yl)-N-methyl-1,4,6,7-tetrahydro-5H-pyrazolo[4,3-c]pyridine-5-carboxamide] |
